Assay results published in PubChem BioAssay AID248 (DTP/NCI, 2004).
Values joined by “and” are separate entries in the source; they are usually repeats but may differ in a detail not shown here. Equal entries are not always repeated. Inconclusive results and toxic doses are left out. Rule as the data show it: active = T/C of 150% or more; inactive = T/C below 125%. Peptide text beside a SMILES is read from it. * marks the point of attachment. Cbz = O=C(OCc1ccccc1)*

Test system: L1210 leukemia ip in BDF1 mice, survival T/C
Assay: NCI In Vivo Anticancer Drug Screen. Data for tumor model L1210 Leukemia (intraperitoneal) in B6D2F1 (BDF1) mice
Conditions: endpoint: mean survival time, higher = longer survival
How it was run: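 Mice bearing the transplanted tumor received compound or vehicle. Survival of the treated group was divided by that of the vehicle-treated control group to give the ratio.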

[1] = dose: 25.0 mg/kg/injection, schedule: Q04DX003 (ip), vehicle: Klucel (hydroxypropylcellulose) (HPC)
[2] = dose: 50.0 mg/kg/injection, schedule: Q04DX003 (ip), vehicle: Klucel (hydroxypropylcellulose) (HPC)
[3] = dose: 100.0 mg/kg/injection, schedule: Q04DX003 (ip), vehicle: Klucel (hydroxypropylcellulose) (HPC)
[4] = dose: 100.0 mg/kg/injection, schedule: Q01DX009 (ip), vehicle: Klucel (hydroxypropylcellulose) (HPC)
[5] = dose: 200.0 mg/kg/injection, schedule: Q01DX009 (ip), vehicle: Klucel (hydroxypropylcellulose) (HPC)
[6] = dose: 100.0 mg/kg/injection, schedule: Q04DX003 (ip), vehicle: saline with Tween-80
[7] = dose: 200.0 mg/kg/injection, schedule: Q04DX003 (ip), vehicle: saline with Tween-80
[8] = dose: 400.0 mg/kg/injection, schedule: Q04DX003 (ip), vehicle: saline with Tween-80
[9] = dose: 25.0 mg/kg/injection, schedule: Q01DX009 (ip), vehicle: Klucel (hydroxypropylcellulose) (HPC)
[10] = dose: 50.0 mg/kg/injection, schedule: Q01DX009 (ip), vehicle: Klucel (hydroxypropylcellulose) (HPC)
[11] = dose: 100.0 mg/kg/injection, schedule: Q01DX001 (ip), vehicle: Klucel (hydroxypropylcellulose) (HPC)
[12] = dose: 200.0 mg/kg/injection, schedule: Q01DX001 (ip), vehicle: Klucel (hydroxypropylcellulose) (HPC)
[13] = dose: 400.0 mg/kg/injection, schedule: Q01DX001 (ip), vehicle: Klucel (hydroxypropylcellulose) (HPC)
[14] = dose: 100.0 mg/kg/injection, schedule: Q04DX003 (ip), vehicle: other
[15] = dose: 200.0 mg/kg/injection, schedule: Q04DX003 (ip), vehicle: other
[16] = dose: 400.0 mg/kg/injection, schedule: Q04DX003 (ip), vehicle: other
[17] = dose: 100.0 mg/kg/injection, schedule: Q04DX002 (ip), vehicle: saline with Tween-80
[18] = dose: 200.0 mg/kg/injection, schedule: Q04DX002 (ip), vehicle: saline with Tween-80
[19] = dose: 400.0 mg/kg/injection, schedule: Q04DX002 (ip), vehicle: saline with Tween-80

Measured: T/C

Cc1cc(S(=O)(=O)F)cc(Cl)c1S
inactive: dose: 25.0 mg/kg/injection, schedule: Q04DX002 (ip), vehicle: saline with Tween-80 99 % of control | dose: 50.0 mg/kg/injection, schedule: Q04DX002 (ip), vehicle: saline with Tween-80 92 % of control

C[N+](C)(C)CC1(COC(=O)C(O)(c2ccccc2)c2ccccc2)CCC1
inactive: dose: 12.0 mg/kg/injection, schedule: Q01DX001 (ip), vehicle: Klucel (hydroxypropylcellulose) (HPC) 100 % of control | dose: 12.0 mg/kg/injection, schedule: Q04DX003 (ip), vehicle: Klucel (hydroxypropylcellulose) (HPC) 94 % of control | dose: 25.0 mg/kg/injection, schedule: Q01DX001 (ip), vehicle: Klucel (hydroxypropylcellulose) (HPC) 98 % of control | [1] 86 % of control | dose: 50.0 mg/kg/injection, schedule: Q01DX001 (ip), vehicle: Klucel (hydroxypropylcellulose) (HPC) 96 % of control | [2] 86 % of control

FC1(F)C2Cc3ccccc3C2C1(F)F (stereo not given)
inactive: [3] 96 % of control | dose: 200.0 mg/kg/injection, schedule: Q04DX003 (ip), vehicle: Klucel (hydroxypropylcellulose) (HPC) 98 % of control | dose: 400.0 mg/kg/injection, schedule: Q04DX003 (ip), vehicle: Klucel (hydroxypropylcellulose) (HPC) 100 % of control

[Se]=P(c1ccccc1)(c1ccccc1)c1ccccc1
inactive: [4] 103 % of control | [5] 90 % of control

O=C(NCCCNC(=O)Nc1ccc(C2=NCC(O)CN2)cc1)Nc1ccc(C2=NCC(O)CN2)cc1 (stereo not given)
inactive: dose: 30.7 mg/kg/injection, schedule: Q01DX015 (ip), vehicle: methylcellulose (MC) 104 % of control | dose: 61.5 mg/kg/injection, schedule: Q01DX015 (ip), vehicle: methylcellulose (MC) 95 % of control

O=Cc1cc([N+](=O)[O-])ccc1OCC(=O)O
inactive: [6] 103 % of control | [7] 92 % of control | [8] 93 % of control

Clc1cccc2c(Cl)nccc12
inactive: [6] 100 % of control | [7] 94 % of control | [8] 96 % of control

Cc1cc(C)nc(NC(N)=NCCc2ccccc2)n1
inactive: dose: 12.5 mg/kg/injection, schedule: Q01DX009 (ip), vehicle: Klucel (hydroxypropylcellulose) (HPC) 101 % of control | dose: 12.5 mg/kg/injection, schedule: Q04DX003 (ip), vehicle: Klucel (hydroxypropylcellulose) (HPC) 102 % of control | [9] 101 % of control | [1] 100 % of control | [10] 101 % of control | [2] 102 % of control

Cc1ccc(NCN2C(=O)NC(c3ccccc3)(c3ccccc3)C2=O)cc1
inactive: [11] 93 % of control | [12] 103 % of control | [13] 92 % of control

COc1ccccc1OCCOCCNC1CC2CCC1(C)C2(C)C (stereo not given)
inactive: [3] 88 % of control

CN(C)c1ccc(C=Nc2ccc(S(N)(=O)=O)cc2)cc1
inactive: [4] 100 % of control | [5] 93 % of control | dose: 400.0 mg/kg/injection, schedule: Q01DX009 (ip), vehicle: Klucel (hydroxypropylcellulose) (HPC) 98 % of control

CCCC1COCC(CC)/C1=N\Nc1ccc([N+](=O)[O-])cc1[N+](=O)[O-] (stereo not given)
inactive: [11] 91 % of control | [12] 94 % of control | [13] 91 % of control

CC(NC(=O)C(C)NC(=O)OCc1ccccc1)C(N)=O (stereo not drawn) (Cbz-Ala-Ala-NH2; configuration not given here)
inactive: dose: 100.0 mg/kg/injection, schedule: Q01DX009 (ip), vehicle: saline with Tween-80 88 % of control | dose: 200.0 mg/kg/injection, schedule: Q01DX009 (ip), vehicle: saline with Tween-80 88 % of control | dose: 400.0 mg/kg/injection, schedule: Q01DX009 (ip), vehicle: saline with Tween-80 88 % of control

O=S(=O)(CCl)Nc1ccccn1
inactive: dose: 100.0 mg/kg/injection, schedule: Q01DX009 (ip), vehicle: other 96 % of control | [14] 106 % of control | dose: 200.0 mg/kg/injection, schedule: Q01DX009 (ip), vehicle: other 103 % of control | [15] 108 % of control | dose: 400.0 mg/kg/injection, schedule: Q01DX009 (ip), vehicle: other 102 % of control | [16] 100 % of control

CC(=O)C1C(=O)C(=O)OC1C (stereo not given)
inactive: dose: 100.0 mg/kg/injection, schedule: Q04DX003 (ip), vehicle: alcohol 94 % of control | dose: 200.0 mg/kg/injection, schedule: Q04DX003 (ip), vehicle: alcohol 96 % of control

Cc1ccc(/C(=N\N=C(N)N)C2CC2)c(C)c1
inactive: dose: 15.0 mg/kg/injection, schedule: Q01DX Z (ip), vehicle: methylcellulose (MC) 89 % of control | dose: 30.0 mg/kg/injection, schedule: Q01DX Z (ip), vehicle: methylcellulose (MC) 98 % of control | dose: 30.0 mg/kg/injection, schedule: Q01DX Z (oral), vehicle: methylcellulose (MC) 103 % of control | dose: 60.0 mg/kg/injection, schedule: Q01DX Z (ip), vehicle: methylcellulose (MC) 95 % of control | dose: 60.0 mg/kg/injection, schedule: Q01DX Z (oral), vehicle: methylcellulose (MC) 97 % of control | dose: 240.0 mg/kg/injection, schedule: Q01DX Z (oral), vehicle: methylcellulose (MC) 86 % of control

Clc1ccc2nc3nc(-c4ccccc4)c(-c4ccccc4)nc3nc2c1
inactive: dose: 75.0 mg/kg/injection, schedule: Q01DX001 (ip), vehicle: other 98 % of control | dose: 150.0 mg/kg/injection, schedule: Q01DX001 (ip), vehicle: other 98 % of control | dose: 300.0 mg/kg/injection, schedule: Q01DX001 (ip), vehicle: other 96 % of control

CCCCCCCCCCCCCCCCCCNC(=O)Nc1ccccc1[N+](=O)[O-]
inactive: dose: 50.0 mg/kg/injection, schedule: Q01DX009 (ip), vehicle: DMSO 98 % of control | dose: 100.0 mg/kg/injection, schedule: Q01DX009 (ip), vehicle: DMSO 88 % of control | dose: 100.0 mg/kg/injection, schedule: Q04DX003 (ip), vehicle: DMSO 94 % of control | dose: 200.0 mg/kg/injection, schedule: Q04DX003 (ip), vehicle: DMSO 89 % of control

NC(CCl)=NCCOC12CC3CC(CC(C3)C1)C2
inactive: dose: 25.0 mg/kg/injection, schedule: Q04DX002 (ip), vehicle: saline 94 % of control | dose: 50.0 mg/kg/injection, schedule: Q04DX002 (ip), vehicle: saline 112 % of control | dose: 100.0 mg/kg/injection, schedule: Q04DX002 (ip), vehicle: saline 96 % of control and 87 % of control

Nc1cccc(OCCOc2ccc([N+](=O)[O-])cc2)c1
inactive: dose: 100.0 mg/kg/injection, schedule: Q01DX001 (ip), vehicle: saline 102 % of control | dose: 200.0 mg/kg/injection, schedule: Q01DX001 (ip), vehicle: saline 104 % of control | dose: 400.0 mg/kg/injection, schedule: Q01DX001 (ip), vehicle: saline 100 % of control

CCOC(=O)c1cc(C)nc2ccc(Br)cc12
inactive: [17] 97 % of control | [18] 108 % of control | [19] 97 % of control

CCC(=O)C1(c2ccccc2)CCNCC1
inactive: [9] 102 % of control | [10] 106 % of control | [4] 98 % of control and 118 % of control | dose: 200.0 mg/kg/injection, schedule: Q04DX002 (ip), vehicle: Klucel (hydroxypropylcellulose) (HPC) 106 % of control

COc1cccc(C2NC(=O)CCC2N)c1OC (stereo not given)
inactive: [17] 105 % of control | [18] 102 % of control | [19] 97 % of control

Cn1c(=O)c2ccccc2c2cc(Br)ccc21
inactive: [14] 90 % of control | [15] 92 % of control | [16] 95 % of control
